Measured values as given in patent publication US7271170B2, “Imidazo-pyrimidines and triazolo-pyrimidines: benzodiazepine receptor ligands” (Neurogen Corporation, priority 2003, dated 2007).

Target: benzodiazepine site of the GABAA receptor
Experiment: Ligand binding assay of Example 6 (3H-Ro15-1788 competition, purified rat cortical membranes)
Settings: ligand binding assay of Example 6; Table 5 Ki

CCCc1c(Cn2ccnc2-c2cccc(F)n2)nc(C)n2nc(C)nc12 [Compound 217, 7-[2-(6-Fluoro-pyridin-2-yl)-imidazol-1-ylmethyl]-2,5-dimethyl-8-propyl-[1,2,4]triazolo[1,5-c]pyrimidine]
Ki: < 1000 nM

CCCc1c(Cn2ccnc2-c2cccc(F)n2)nc(C)n2nc(CC)nc12 [Compound 218, 2-Ethyl-7-[2-(6-fluoro-pyridin-2-yl)-imidazol-1-ylmethyl]-5-methyl-8-propyl-[1,2,4]triazolo[1,5-c]pyrimidine]
Ki: < 1000 nM

CCc1nc2c(CC)c(Cn3ccnc3-c3cc(F)ccc3C)ncn2n1 [Compound 219, 2,8-Diethyl-7-[2-(5-fluoro-2-methyl-phenyl)-imidazol-1-ylmethyl]-[1,2,4]triazolo[1,5-c]pyrimidine]
Ki: < 1000 nM

COCc1c(Cn2ccnc2-c2ncccc2F)ncn2nc(C)nc12 [Compound 220, 7-[2-(3-Fluoro-pyridin-2-yl)-imidazol-1-ylmethyl]-8-methoxymethyl-2-methyl-[1,2,4]triazolo[1,5-c]pyrimidine]
Ki: < 1000 nM

CCC(O)c1c(Cn2ccnc2-c2cccc(F)n2)ncn2nc(C)nc12 (stereo not shown) [Compound 221, 1-{7-[2-(6-Fluoro-pyridin-2-yl)-imidazol-1-ylmethyl]-2-methyl-[1,2,4]triazolo[1,5-c]pyrimidin-8-yl}-propan-1-ol]
Ki: < 1000 nM

CCC(O)c1c(Cn2ccnc2-c2ncccc2F)ncn2nc(C)nc12 (stereo not shown) [Compound 222, 1-{7-[2-(3-Fluoro-pyridin-2-yl)-imidazol-1-ylmethyl]-2-methyl-[1,2,4]triazolo[1,5-c]pyrimidin-8-yl}-propan-1-ol]
Ki: < 1000 nM

CCCc1c(Cn2ccnc2-c2ncccc2F)ncn2nc(CO)nc12 [Compound 223, {7-[2-(3-Fluoro-pyridin-2-yl)-imidazol-1-ylmethyl]-8-propyl-[1,2,4]triazolo[1,5-c]pyrimidin-2-yl}-methanol]
Ki: < 1000 nM

C/C=C/c1c(Cn2ccnc2-c2ncccc2F)ncn2nc(C)nc12 [Compound 224, 7-[2-(3-Fluoro-pyridin-2-yl)-imidazol-1-ylmethyl]-2-methyl-8-propenyl-[1,2,4]triazolo[1,5-c]pyrimidine]
Ki: < 1000 nM

CCCc1c(Cn2ccnc2-c2ncccc2F)ncn2nc(-c3cccnc3)nc12 [Compound 225, 7-[2-(3-Fluoro-pyridin-2-yl)-imidazol-1-ylmethyl]-8-propyl-2-pyridin-3-yl-[1,2,4]triazolo[1,5-c]pyrimidine]
Ki: < 1000 nM

Cc1nc2c(CCCOCc3ccccc3)c(Cn3ccnc3-c3ncccc3F)ncn2n1 [Compound 226, 8-(3-Benzyloxy-propyl)-7-[2-(3-fluoro-pyridin-2-yl)-imidazol-1-ylmethyl]-2-methyl[1,2,4]triazolo[1,5-c]pyrimidine]
Ki: < 1000 nM

Cc1nc2c(CCOCc3ccccc3)c(Cn3ccnc3-c3ncccc3F)ncn2n1 [Compound 227, 8-(2-Benzyloxy-ethyl)-7-[2-(3-fluoro-pyridin-2-yl)-imidazol-1-ylmethyl]-2-methyl-[1,2,4]triazolo[1,5-c]pyrimidine]
Ki: < 1000 nM

Cc1nc2c(CCCO)c(Cn3ccnc3-c3ncccc3F)ncn2n1 [Compound 228, 3-{7-[2-(3-Fluoro-pyridin-2-yl)-imidazol-1-ylmethyl]-2-methyl-[1,2,4]triazolo[1,5-c]pyrimidin-8-yl}-propan-1-ol]
Ki: < 1000 nM

Cc1nc2c(CCF)c(Cn3ccnc3-c3ncccc3F)ncn2n1 [Compound 229, 8-(2-Fluoro-ethyl)-7-[2-(3-fluoro-pyridin-2-yl)-imidazol-1-ylmethyl]-2-methyl-[1,2,4]triazolo[1,5-c]pyrimidine]
Ki: < 1000 nM

Cc1nc2c(CCCCl)c(Cn3ccnc3-c3ncccc3F)ncn2n1 [Compound 230, 8-(3-Chloro-propyl)-7-[2-(3-fluoro-pyridin-2-yl)-imidazol-1-ylmethyl]-2-methyl-[1,2,4]triazolo[1,5-c]pyrimidine]
Ki: < 1000 nM

Cc1nc2c(CCO)c(Cn3ccnc3-c3ncccc3F)ncn2n1 [Compound 231, 2-{7-[2-(3-Fluoro-pyridin-2-yl)-imidazol-1-ylmethyl]-2-methyl-[1,2,4]triazolo[1,5-c]pyrimidin-8-yl}-ethanol]
Ki: < 1000 nM

Cc1nc2c(CCCF)c(Cn3ccnc3-c3ncccc3F)ncn2n1 [Compound 232, 8-(3-Fluoro-propyl)-7-[2-(3-fluoro-pyridin-2-yl)-imidazol-1-ylmethyl]-2-methyl-[1,2,4]triazolo[1,5-c]pyrimidine]
Ki: < 1000 nM

FCCCc1c(Cn2ccnc2-c2ncccc2F)ncn2ncnc12 [Compound 233, 8-(3-Fluoro-propyl)-7-[2-(3-fluoro-pyridin-2-yl)-imidazol-1-ylmethyl]-[1,2,4]triazolo[1,5-c]pyrimidine]
Ki: < 1000 nM

CCc1c(Cn2ccnc2-c2ncccc2F)ncn2ncnc12 [Compound 234, 8-ethyl-7-{[2-(3-fluoropyridin-2-yl)-1H-imidazol-1-yl]methyl}[1,2,4]triazolo[1,5-c]pyrimidine]
Ki: < 1000 nM

CCCc1c(Cn2ccnc2-c2cccc(C(F)(F)F)n2)ncn2ncnc12 [Compound 235, 8-Propyl-7-[2-(6-trifluoromethyl-pyridin-2-yl)-imidazol-1-ylmethyl]-[1,2,4]triazolo[1,5-c]pyrimidine]
Ki: < 1000 nM

N#Cc1cccnc1-c1nccn1Cc1ncn2ncnc2c1CCCF [Compound 236, 2-{1-[8-(3-Fluoro-propyl)-[1,2,4]triazolo[1,5-c]pyrimidin-7-ylmethyl]-1H-imidazol-2-yl}-nicotinonitrile]
Ki: < 1000 nM

N#Cc1cccc(-c2nccn2Cc2ncn3ncnc3c2CCCF)n1 [Compound 237, 6-{1-[8-(3-Fluoro-propyl)-[1,2,4]triazolo[1,5-c]pyrimidin-7-ylmethyl]-1H-imidazol-2-yl}-pyridine-2-carbonitrile]
Ki: < 1000 nM

CCCc1c(Cn2ccnc2-c2ncccc2F)ncn2nc(C(=O)OCC)nc12 [Compound 238, 7-[2-(3-Fluoro-pyridin-2-yl)-imidazol-1-ylmethyl]-8-propyl-[1,2,4]triazolo[1,5-c]pyrimidine-2-carboxylic acidethyl ester]
Ki: < 1000 nM

CCCc1c(Cn2ccnc2-c2ncccc2F)ncn2nc(C(N)=O)nc12 [Compound 239, 7-[2-(3-Fluoro-pyridin-2-yl)-imidazol-1-ylmethyl]-8-propyl-[1,2,4]triazolo[1,5-c]pyrimidine-2-carboxylic acidamide]
Ki: < 1000 nM

CCCc1c(Cn2ccnc2-c2ncccc2F)ncn2nc(C#N)nc12 [Compound 240, 7-[2-(3-Fluoro-pyridin-2-yl)-imidazol-1-ylmethyl]-8-propyl-[1,2,4]triazolo[1,5-c]pyrimidine-2-carbonitrile]
Ki: < 1000 nM

CCCc1c(Cn2cc(Cl)nc2-c2ncccc2F)ncn2ncnc12 [Compound 241, 7-[4-Chloro-2-(3-fluoro-pyridin-2-yl)-imidazol-1-ylmethyl]-8-propyl-[1,2,4]triazolo[1,5-c]pyrimidine]
Ki: < 1000 nM

CCCc1c(Cn2ccnc2-c2ncccc2C#N)ncn2nc(C)nc12 [Compound 242, 2-[1-(2-methyl-8-propyl-[1,2,4]triazolo[1,5-c]pyrimidin-7-ylmethyl)-1H-imidazol-2-yl]-nicotinonitrile]
Ki: < 1000 nM

CCOc1c(Cn2ccnc2-c2ncccc2F)ncn2nc(C)nc12 [Compound 243, 8-Ethoxy-7-[2-(3-fluoro-pyridin-2-yl)-imidazol-1-ylmethyl]-2-methyl-[1,2,4]triazolo[1,5-c]pyrimidine]
Ki: < 1000 nM

CCc1c(Cn2ccnc2-c2ncccc2F)ncn2nc(C)nc12 [Compound 244, 8-ethyl-7-{[2-(3-fluoropyridin-2-yl)-1H-imidazol-1-yl]methyl}-2-methyl[1,2,4]triazolo[1,5-c]pyrimidine]
Ki: < 1000 nM

CCOc1c(Cn2ccnc2-c2ncccc2F)ncn2ncnc12 [Compound 245, 8-ethoxy-7-{[2-(3-fluoropyridin-2-yl)-1H-imidazol-1-yl]methyl}[1,2,4]triazolo[1,5-c]pyrimidine]
Ki: < 1000 nM

CCCc1c(Cn2ccnc2-c2ncccc2F)ncn2nc(OC)nc12 [Compound 246, 7-{[2-(3-fluoropyridin-2-yl)-1H-imidazol-1-yl]methyl}-2-methoxy-8-propyl[1,2,4]triazolo[1,5-c]pyrimidine]
Ki: < 1000 nM

CCCc1c(Cn2ccnc2-c2ncccc2F)ncn2nc(OCC)nc12 [Compound 247, 2-ethoxy-7-{[2-(3-fluoropyridin-2-yl)-1H-imidazol-1-yl]methyl}-8-propyl[1,2,4]triazolo[1,5-c]pyrimidine]
Ki: < 1000 nM

CCCc1c(Cn2ccnc2-c2ncccc2F)ncn2nc(N)nc12 [Compound 248, 7-{[2-(3-fluoropyridin-2-yl)-1H-imidazol-1-yl]methyl}-8-propyl[1,2,4]triazolo[1,5-c]pyrimidin-2-amine]
Ki: < 1000 nM

CCCc1c(Cn2ccnc2-c2ncccc2F)ncn2nc(C(C)(C)O)nc12 [Compound 249, 2-(7-{[2-(3-fluoropyridin-2-yl)-1H-imidazol-1-yl]methyl}-8-propyl[1,2,4]triazolo[1,5-c]pyrimidin-2-yl)propan-2-ol]
Ki: < 1000 nM

CCCc1c(Cn2ccnc2-c2cccc(F)n2)ncn2nc(COCC)nc12 [Compound 250, 2-(ethoxymethyl)-7-{[2-(6-fluoropyridin-2-yl)-1H-imidazol-1-yl]methyl}-8-propyl[1,2,4]triazolo[1,5-c]pyrimidine]
Ki: < 1000 nM

CCCc1c(Cn2ccnc2-c2ncccc2F)ncn2nc(C(=O)OC)nc12 [Compound 251, methyl 7-{[2-(3-fluoropyridin-2-yl)-1H-imidazol-1-yl]methyl}-8-propyl[1,2,4]triazolo[1,5-c]pyrimidine-2-carboxylate]
Ki: < 1000 nM

CCCc1c(Cn2ccnc2-c2cccc(F)n2)ncn2nc(C(C)(C)O)nc12 [Compound 252, 2-(7-{[2-(6-fluoropyridin-2-yl)-1H-imidazol-1-yl]methyl}-8-propyl[1,2,4]triazolo[1,5-c]pyrimidin-2-yl)propan-2-ol]
Ki: < 1000 nM

CCCc1c(Cn2ccnc2-c2cccc(C#N)n2)ncn2nc(COC)nc12 [Compound 253, 6-(1-{[2-(methoxymethyl)-8-propyl[1,2,4]triazolo[1,5-c]pyrimidin-7-yl]methyl}-1H-imidazol-2-yl)pyridine-2-carbonitrile]
Ki: < 1000 nM
